Test system: MOLM-13 cells
Test: MOLM-13 Cell Proliferation Assay (indicator of DHODH inhibition)
Type: cell-based
Settings: Homo sapiens, 72 Hours of culture, CellTiter-Glo, no uridine
How it was run: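 Proliferation readout via CellTiter-Glo luminescence after 72 h compound treatment (37 °C, 5% CO2, 0.5% DMSO) of MOLM-13 cells seeded at 10^4 per well in RPMI 1640/10% FBS, used as a DHODH-inhibition indicator since these cells rely on de novo pyrimidine synthesis.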

IC50 [nM]	Structure (SMILES)
39.1	Fc1cc2[nH]c3c(c2cc1Cl)CCN(c1ncc(Cl)cn1)C3c1ccc(Cl)cc1 (stereo not drawn) [Compound 29, 6-chloro-1-(4-chlorophenyl)-2-(5-chloropyrimidin-2-yl)-7-fluoro-2,3,4,9-tetrahydro-1H-pyrido[3,4-b]indole]
8.8	CSc1nc(N2CCc3c([nH]c4ccc(F)cc34)C2c2ccc(C)c(F)c2F)nc(C(F)(F)F)n1 (stereo not drawn) [Compound 495, 1-(2,3-difluoro-4-methylphenyl)-6-fluoro-2-[4-(methylsulfanyl)-6-(trifluoromethyl)-1,3,5-triazin-2-yl]-2,3,4,9-tetrahydro-1H-pyrido[3,4-b]indole]
67.9	Fc1ccc(C2c3[nH]c4cc(F)c(Cl)cc4c3CCN2c2ncc(F)cn2)cc1 (stereo not drawn) [Compound 5, 6-chloro-7-fluoro-1-(4-fluorophenyl)-2-(5-fluoropyrimidin-2-yl)-2,3,4,9-tetrahydro-1H-pyrido[3,4-b]indole]
24.6	N#Cc1ccnc(N2CCc3c([nH]c4cc(F)c(Cl)cc34)C2c2ccc(C(F)(F)F)cc2)n1 (stereo not drawn) [Compound 121, 2-{6-chloro-7-fluoro-1-[4-(trifluoromethyl)phenyl]-1,3,4,9-tetrahydro-2H-pyrido[3,4-b]indol-2-yl}pyrimidine-4-carbonitrile]
12.1	Cc1ccc(C2c3[nH]c4c(N)cc(Cl)cc4c3CCN2c2nc(C)nc(C)n2)cc1 (stereo not drawn) [Compound 292, 6-chloro-2-(4,6-dimethyl-1,3,5-triazin-2-yl)-1-(4-methylphenyl)-2,3,4,9-tetrahydro-1H-pyrido[3,4-b]indol-8-amine]
6.3	FC(F)(F)c1ccnc(N2CCc3c([nH]c4ccc(Cl)cc34)C2c2ccc(-n3ccnc3)cc2)n1 (stereo not drawn) [Compound 260, 6-chloro-1-[4-(1H-imidazol-1-yl)phenyl]-2-[4-(trifluoromethyl)pyrimidin-2-yl]-2,3,4,9-tetrahydro-1H-pyrido[3,4-b]indole]
5.8	Cc1nc(N2CC(F)(F)C2)nc(N2CCc3c([nH]c4ccc(Cl)cc34)[C@@H]2c2cnc(N3CCOCC3)nc2)n1 [Compound 457, (1S)-6-chloro-2-[4-(3,3-difluoroazetidin-1-yl)-6-methyl-1,3,5-triazin-2-yl]-1-[2-(morpholin-4-yl)pyrimidin-5-yl]-2,3,4,9-tetrahydro-1H-pyrido[3,4-b]indole]
3.1	Clc1ccc2[nH]c3c(c2c1)CCN(c1ncc(Br)cn1)[C@H]3c1cnc(N2CCOCC2)nc1 [Compound 470, (1S)-2-(5-bromopyrimidin-2-yl)-6-chloro-1-[2-(morpholin-4-yl)pyrimidin-5-yl]-2,3,4,9-tetrahydro-1H-pyrido[3,4-b]indole]
24.7	CC(C)c1ccc(C2c3[nH]c4cc(F)c(Cl)cc4c3CCN2c2ncc(F)cn2)cc1 (stereo not drawn) [Compound 50, 6-chloro-7-fluoro-2-(5-fluoropyrimidin-2-yl)-1-[4-(propan-2-yl)phenyl]-2,3,4,9-tetrahydro-1H-pyrido[3,4-b]indole]
65.6	Cc1ccc(C2c3[nH]c4ccc(F)c(F)c4c3CCN2c2ncc(Cl)cn2)cc1 (stereo not drawn) [Compound 84, 2-(5-chloropyrimidin-2-yl)-5,6-difluoro-1-(4-methylphenyl)-2,3,4,9-tetrahydro-1H-pyrido[3,4-b]indole]
4.7	CC(=O)c1ncc([C@H]2c3[nH]c4ccc(Cl)cc4c3CCN2c2nc(C(F)(F)F)nc(C(F)(F)F)n2)cn1 [Compound 533, 1-(5-{(1S)-2-[4,6-bis(trifluoromethyl)-1,3,5-triazin-2-yl]-6-chloro-2,3,4,9-tetrahydro-1H-pyrido[3,4-b]indol-1-yl}pyrimidin-2-yl)ethan-1-one]
0.5	Cc1ccc([C@H]2c3[nH]c4ccc(Cl)cc4c3CCN2c2nc(CF)nc(C(F)(F)F)n2)c(F)c1F [Compound 526, (1S)-6-chloro-1-(2,3-difluoro-4-methylphenyl)-2-[4-(fluoromethyl)-6-(trifluoromethyl)-1,3,5-triazin-2-yl]-2,3,4,9-tetrahydro-1H-pyrido[3,4-b]indole]
1.2	N#Cc1cc(C(F)(F)F)nc(N2CCc3c([nH]c4ccc(Cl)cc34)[C@@H]2c2cnc(N3CCOCC3)nc2)n1 [Compound 434, 2-{(1S)-6-chloro-1-[2-(morpholin-4-yl)pyrimidin-5-yl]-1,3,4,9-tetrahydro-2H-pyrido[3,4-b]indol-2-yl}-6-(trifluoromethyl)pyrimidine-4-carbonitrile]
7.3	C[C@@H]1CN(c2ncc([C@H]3c4[nH]c5ccc(Cl)cc5c4CCN3c3nc(C(F)(F)F)cc(C(F)(F)F)n3)cn2)C[C@H](C)N1 [Compound 503, (1S)-2-[4,6-bis(trifluoromethyl)pyrimidin-2-yl]-6-chloro-1-{2-[(3R,5S)-3,5-dimethylpiperazin-1-yl]pyrimidin-5-yl}-2,3,4,9-tetrahydro-1H-pyrido[3,4-b]indole]
110	Cc1ncc(C2c3[nH]c4cc(F)c(Cl)cc4c3CCN2c2ncc(Cl)cn2)cn1 (stereo not drawn) [Compound 101, 6-chloro-2-(5-chloropyrimidin-2-yl)-7-fluoro-1-(2-methylpyrimidin-5-yl)-2,3,4,9-tetrahydro-1H-pyrido[3,4-b]indole]
3	FC(F)(F)c1ccnc(N2CCc3c([nH]c4ccc(Cl)cc34)C2c2ccc(Cl)cc2)n1 (stereo not drawn) [Compound 349, 6-chloro-1-(4-chlorophenyl)-2-[4-(trifluoromethyl)pyrimidin-2-yl]-2,3,4,9-tetrahydro-1H-pyrido[3,4-b]indole]
0.9	Cc1ccc(C2c3[nH]c4ccc(Cl)cc4c3CCN2c2nccc(C(F)(F)F)n2)c(F)c1F (stereo not drawn) [Compound 128, 6-chloro-1-(2,3-difluoro-4-methylphenyl)-2-[4-(trifluoromethyl)pyrimidin-2-yl]-2,3,4,9-tetrahydro-1H-pyrido[3,4-b]indole]
3.2	Cc1ccc(C2c3[nH]c4cc(F)c(Cl)cc4c3CCN2c2ncc(F)c(C)n2)c(F)c1F (stereo not drawn) [Compound 125, 6-chloro-1-(2,3-difluoro-4-methylphenyl)-7-fluoro-2-(5-fluoro-4-methylpyrimidin-2-yl)-2,3,4,9-tetrahydro-1H-pyrido[3,4-b]indole]
1.2	Cc1ccc(C2c3[nH]c4ccc(Cl)c(F)c4c3CCN2c2nccc(C#N)n2)c(F)c1F (stereo not drawn) [Compound 198, 2-[6-chloro-1-(2,3-difluoro-4-methylphenyl)-5-fluoro-1,3,4,9-tetrahydro-2H-pyrido[3,4-b]indol-2-yl]pyrimidine-4-carbonitrile]
6.8	Fc1ccccc1C1c2[nH]c3ccc(Cl)cc3c2CCN1c1nccc(C(F)(F)F)n1 (stereo not drawn) [Compound 341, 6-chloro-1-(2-fluorophenyl)-2-[4-(trifluoromethyl)pyrimidin-2-yl]-2,3,4,9-tetrahydro-1H-pyrido[3,4-b]indole]
7	Cc1nc(C)nc(N2CCc3c([nH]c4c(N)cc(Cl)cc34)C2c2ccc(N3CCOCC3)nc2)n1 (stereo not drawn) [Compound 321, 6-chloro-2-(4,6-dimethyl-1,3,5-triazin-2-yl)-1-[6-(morpholin-4-yl)pyridin-3-yl]-2,3,4,9-tetrahydro-1H-pyrido[3,4-b]indol-8-amine]
2.8	Cc1cc(C)nc(N2CCc3c([nH]c4cc(F)c(Cl)cc34)C2c2ccc(/C=C/CCO)cc2)n1 (stereo not drawn) [Compound 244, (3E)-4-{4-[6-chloro-2-(4,6-dimethylpyrimidin-2-yl)-7-fluoro-2,3,4,9-tetrahydro-1H-pyrido[3,4-b]indol-1-yl]phenyl}but-3-en-1-ol]
222	Oc1ccc(C2c3[nH]c4cc(F)c(Cl)cc4c3CCN2c2ncc(F)cn2)cn1 (stereo not drawn) [Compound 48, 5-[6-chloro-7-fluoro-2-(5-fluoropyrimidin-2-yl)-2,3,4,9-tetrahydro-1H-pyrido[3,4-b]indol-1-yl]pyridin-2-ol]
0.7	FC(F)(F)c1ncnc(N2CCc3c([nH]c4ccc(-n5nccn5)cc34)[C@@H]2c2ccc(N3CCOCC3)nc2)n1 [Compound 498, (1S)-1-[6-(morpholin-4-yl)pyridin-3-yl]-6-(2H-1,2,3-triazol-2-yl)-2-[4-(trifluoromethyl)-1,3,5-triazin-2-yl]-2,3,4,9-tetrahydro-1H-pyrido[3,4-b]indole]
1.7	Cc1nc(N2CCc3c([nH]c4ccc(Cl)cc34)[C@@H]2c2cnc(N3CCOCC3)nc2)nc(C#N)c1F [Compound 421, 2-{(1S)-6-chloro-1-[2-(morpholin-4-yl)pyrimidin-5-yl]-1,3,4,9-tetrahydro-2H-pyrido[3,4-b]indol-2-yl}-5-fluoro-6-methylpyrimidine-4-carbonitrile]
11.8	Cc1ccc(C2c3[nH]c4ccc(Cl)cc4c3CCN2c2nccc(C)n2)cc1 (stereo not drawn) [Compound 332, 6-chloro-1-(4-methylphenyl)-2-(4-methylpyrimidin-2-yl)-2,3,4,9-tetrahydro-1H-pyrido[3,4-b]indole]
67.5	N#Cc1ccc(C2c3[nH]c4cc(F)c(Cl)cc4c3CCN2c2nccc(C#N)n2)cc1 (stereo not drawn) [Compound 64, 2-[6-chloro-1-(4-cyanophenyl)-7-fluoro-1,3,4,9-tetrahydro-2H-pyrido[3,4-b]indol-2-yl]pyrimidine-4-carbonitrile]
4	Cc1ccc(C2c3[nH]c4ccc(Cl)cc4c3CCN2c2nccc(-c3ccccc3)n2)c(F)c1F (stereo not drawn) [Compound 469, 6-chloro-1-(2,3-difluoro-4-methylphenyl)-2-(4-phenylpyrimidin-2-yl)-2,3,4,9-tetrahydro-1H-pyrido[3,4-b]indole]
2	OCCOCc1ccc(C2c3[nH]c4cc(F)c(Cl)cc4c3CCN2c2nccc(C(F)(F)F)n2)cc1 (stereo not drawn) [Compound 223, 2-[(4-{6-chloro-7-fluoro-2-[4-(trifluoromethyl)pyrimidin-2-yl]-2,3,4,9-tetrahydro-1H-pyrido[3,4-b]indol-1-yl}phenyl)methoxy]ethan-1-ol]

Structure (SMILES)	IC50 [nM]
FC(F)(F)c1ccnc(N2CCc3c([nH]c4ccc(Cl)c(Br)c34)C2c2ccc(Cl)cc2)n1 (stereo not drawn) [Compound 247, 5-bromo-6-chloro-1-(4-chlorophenyl)-2-[4-(trifluoromethyl)pyrimidin-2-yl]-2,3,4,9-tetrahydro-1H-pyrido[3,4-b]indole]	1.8

— patent US20250186437A1, “CARBOLINE COMPOUNDS AND USE THEREOF” (PTC Therapeutics, Inc., priority 2021, published 2025)
